Laboratory results taken from article PMC6095626, “Screening of the Pathogen Box for inhibitors with dual efficacy against Giardia lamblia and Cryptosporidium parvum” (PLoS Neglected Tropical Diseases, 2018).

Assays:
[1] = system: C. parvum (UGA1 Nluc expressing strain in HCT-8 cells); experiment: microbe, parasite or virus in culture; format: cell-based, Cryptosporidium parvum; conditions: for Crypto (10 uM) Mean % inhibition: initial Pathogen Box screen, single concentration 10 µM, inhibition compared to DMSO wells
Procedure, shortened: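 HCT-8 monolayers grown 48 h to 90–100% confluence, treated with compound at 10 μM or serial dilutions, then infected with bleach-treated UGA1 Nluc C. parvum oocysts.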

[2] = system: G. lamblia trophozoites (luciferase expressing, WBC6); experiment: microbe, parasite or virus in culture; format: cell-based, Giardia lamblia; conditions: for Giardia (16 uM) Mean % inhibition: initial Pathogen Box screen, single concentration 16 µM, inhibition compared to DMSO wells
Procedure, shortened: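 Luciferase-expressing WBC6 trophozoites plated at 250,000 cells/mL, compounds added 1:1, incubated anaerobically (GasPak bags) at 37 °C for 24 h; viability read by bioluminescence, with duplicate plates counted on a MOXI Z cell counter. Metronidazole control serially diluted 1:2 from 40 μM.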

Row | Compound | Crypto (10 uM) Mean % inhibition [1] | Giardia (16 uM) Mean % inhibition [2] | further results
1 | Cc1nc(-c2ccccn2)nc(N(C)CCc2ccccc2)c1Cl [MMV658988] | 33% | X* (Mean or standard deviation are negative but not significantly different from the control to be a growth promoter) | 
2 | Cc1nc(-c2ccccn2)nc(NCCc2ccc(S(C)(=O)=O)cc2)c1Cl [MMV658993] | X* (Mean or standard deviation are negative but not significantly different from the control to be a growth promoter) | 11% | 
3 | Cc1nc(-c2ccccn2)nc(N2CCC(Cc3ccccc3)C2)c1Cl (centres unmarked) [MMV659004] | 66% | 13% | 
4 | FC(F)(F)c1cc(NCCc2ccccc2)nc(-c2ccccn2)n1 [MMV659010] | 15% | 41% | 
5 | Brc1cncc(-c2cc(NCCCn3ccnc3)nc(-c3ccccc3)n2)c1 [MMV661713] | X* (Mean or standard deviation are negative but not significantly different from the control to be a growth promoter) | X* (Mean or standard deviation are negative but not significantly different from the control to be a growth promoter) | 
6 | Clc1cccc(C(c2ccc(CN3CCNCC3)cc2)n2ccnc2)c1 (centres unmarked) [MMV663250] | 52% | 14% | 
7 | O=C(NCCN1CCCC1)c1cc(NCCCCN2CCC(F)(F)CC2)nc2ccc(Cl)cc12 [MMV667494] | X* (Mean or standard deviation are negative but not significantly different from the control to be a growth promoter) | 82% | 
8 | Nc1ncc(-c2ccc(C(F)(F)F)nc2)cc1-c1ccc(C(F)(F)F)nc1 [MMV668727] | 82% | 0.605% | 
9 | Cc1[nH]c2cc(F)cc(F)c2c(=O)c1-c1ccc(Oc2ccc(OC(F)(F)F)cc2)cc1 [MMV671636] | X* (Mean or standard deviation are negative but not significantly different from the control to be a growth promoter) | 18% | 
10 | COc1ccc(OC)c(NCc2ccc3nc(N)nc(N)c3c2Cl)c1 [MMV675968] |  |  | C. parvum cell growth inhibition in the initial screen ([1]; 10 μM, 48 hours): 88%; EC50 ([1]; Nluc C. parvum in HCT-8 cells, 48 hours, read-out: C. parvum EC50): 2100 nM; G. lamblia inhibition of parasite growth in the initial screen ([2]; 16 μM, 24 hours): 90%; G. lamblia EC50 ([2]; luciferase expressing G. lamblia trophozoites, 24 hours, D-luciferin bioluminescence read-out): not potent; EC50 ([2]; luciferase expressing G. lamblia trophozoites, 24 hours, D-luciferin bioluminescence read-out, read-out: G. lamblia EC50): > 10000 nM
11 | CC(C)(C)c1ccc(N[C@@H]2CCCC[C@H]2NC(=O)c2ccco2)cc1 [MMV675969] | X* (Mean or standard deviation are negative but not significantly different from the control to be a growth promoter) | 32% | 
12 | COc1ccc(-c2nn(C(C)C)c3ncnc(N)c23)cc1OC [MMV675993] | 89% | X* (Mean or standard deviation are negative but not significantly different from the control to be a growth promoter) | 
13 | Clc1ccc(-n2cc(COc3ccnc4ccccc34)nn2)cc1 [MMV675994] | 94% | 15% | 
14 | COc1ccc(N(CCc2cccc(C)n2)C(C)=O)cc1 [MMV675995] | 26% | 26% | 
15 | COc1ccc(N(CCc2cccc(C)n2)C(=O)C2CCCCC2)cc1 [MMV675996] | X* (Mean or standard deviation are negative but not significantly different from the control to be a growth promoter) | 16% | 
16 | N#CCN(CCCCN1CCN(c2ccc(F)cc2)CC1)C(=O)OCc1ccccc1 [MMV675997] | 56% | 29% | 
17 | COc1ccc(C(=N)N)cc1-c1cn(-c2ccc(C(=N)N)cc2)nn1 [MMV675998] | X* (Mean or standard deviation are negative but not significantly different from the control to be a growth promoter) | 30% | 
18 | O=C(Nc1c(O)cccc1-c1nc2c(C(=O)O)cccc2o1)c1cc(-c2ccccc2)on1 [MMV676008] | X* (Mean or standard deviation are negative but not significantly different from the control to be a growth promoter) | 41% | 
19 | Clc1ccc(Cl)c(CO[C@H]2CCCC[C@@H]2n2ccnc2)c1 [MMV676048] | 49% | 37% | 
20 | CS(=O)(=O)N1CCC(Cn2nc(Cc3cccc4ccccc34)c3c(N)ncnc32)CC1 [MMV676050] | 79% | 18% | 

Row | Compound | Crypto (10 uM) Mean % inhibition [1] | Giardia (16 uM) Mean % inhibition [2] | further results
21 | COc1cc(NC(=O)Cc2nn(C)c(=O)c3ccccc23)ccc1Cl [MMV676053] | 84% | X* (Mean or standard deviation are negative but not significantly different from the control to be a growth promoter) | 
22 | CC(C)(C)OC(=O)N1CCN(c2cc(-c3ccc(Oc4ccccc4)cc3)n[nH]2)CC1 [MMV676057] | X* (Mean or standard deviation are negative but not significantly different from the control to be a growth promoter) | 52% | 
23 | CCCCc1ccc(NC(=O)Nc2ccc(O[C@H]3CCCC[C@@H]3N(C)c3ccccc3)c(F)c2)cc1 [MMV676063] | 82% | 29% | 
24 | CC(=O)N(CCN(C(=O)c1ccc(F)cc1)c1ccccc1)c1ccccc1 [MMV676064] | 28% | 28% | 
25 | Clc1cccc(CO[C@H]2CCc3ccccc3[C@@H]2n2ccnn2)c1 [MMV676159] | X* (Mean or standard deviation are negative but not significantly different from the control to be a growth promoter) | 30% | 
26 | c1ccc(Oc2ccc(-c3cc(CN4CCOCC4)[nH]n3)cc2)cc1 [MMV676161] | X* (Mean or standard deviation are negative but not significantly different from the control to be a growth promoter) | 33% | 
27 | O=C(Nc1ccccc1-c1nc2c(C(=O)O)cccc2o1)c1ccccc1 [MMV676162] | 48% | 1.55% | 
28 | Nc1ncnc2c1c(Cc1cccc3ccccc13)nn2CC1CCNCC1 [MMV676182] | 59% | 0.413% | 
29 | COC(=O)c1cccc2oc(-c3cccc(OC)c3NC(=O)c3cc(-c4ccccc4)on3)nc12 [MMV676186] | 28% | 19% | 
30 | O=C(c1ccc(F)cc1)N(CCNc1ccccc1)c1ccccc1 [MMV676204] | 55% | 28% | 
31 | CN1CCN(c2nccc3nc(-c4ccc(F)c(F)c4)[nH]c23)CC1 [MMV676260] | 33% | 29% | 
32 | C[C@H](C(N)=O)N1CCCC[C@H]1c1ccc(OCc2cccc(F)c2)cc1 [MMV676269] | 7% | 69% | 
33 | C[C@H](C(N)=O)N1CCCC[C@@H]1c1ccc(OCc2cccc(F)c2)cc1 [MMV676270] | 6.67% | 20% | 
34 | Cc1c[nH]c(CCNC(=O)c2cc(-c3ccc(Cl)cc3)cs2)n1 [MMV676350] | X* (Mean or standard deviation are negative but not significantly different from the control to be a growth promoter) | 17% | 
35 | Nc1ncc(Br)cc1-c1nc2cc(Cl)cnc2[nH]1 [MMV676358] | X* (Mean or standard deviation are negative but not significantly different from the control to be a growth promoter) | 90% | 
36 | Brc1c(-c2ccc3c(c2)OCO3)nc2ncccn12 [MMV676377] | X* (Mean or standard deviation are negative but not significantly different from the control to be a growth promoter) | 40% | 
37 | COc1cccc(OCC(=O)c2ccc(Br)cc2)c1 [MMV676379] | 55% | 80% | 
38 | CC(=O)Nc1ccc(NC(=O)c2cc(-c3cc(Cl)ccc3O)n[nH]2)cc1 [MMV676380] | 34% | X* (Mean or standard deviation are negative but not significantly different from the control to be a growth promoter) | 
39 | Cn1ncc2c(N3CCOCC3)nc(NCCc3c[nH]c4ccccc34)nc21 [MMV676382] | 83% | 60% | 
40 | CCC(Sc1nc2ccccc2o1)C(=O)Nc1nccs1 (centres unmarked) [MMV676383] | 57% | 88% | 
